Assay results reported in patent publication US12310970B2, “Compounds and methods for treating or preventing anterior segment ocular disorders and/or retinal degenerations” (YALE UNIVERSITY, priority 2018, dated 2025).
Entries after “also recorded” stand apart in the source; their conditions may differ. Structures can show the parent of a compound that is named as a salt.

What was measured:
Format in all cases: cell-based
[1] = system: Human ARPE-19 cells; assay: TBHP-induced oxidative stress cell viability assay (RealTime-Glo) in ARPE-19; conditions: for protection from oxidative stress-induced cell death: 0.9 μM 24 h preincubation, 400 μM TBHP 24 h; for protection from TBHP-induced cell death in screen of 65,000 compound Chemical Diversity library: initial high-throughput screening
Method: Immortalized human RPE cells (ARPE-19) obtained from the American Type Culture Collection (ATCC, Manassas, VA, USA) were cultured in Dulbecco's modified Eagle's medium (DMEM; Thermo Fisher Scientific, Waltham, MA) containing 10% fetal bovine serum (FBS), 100 IU/mL penicillin, 100 μg/mL streptomycin, 100 μg/mL gentamicin, and 2.5 μg/mL amphotericin B (Thermo Fisher Scientific).
Human ARPE-19 cells were plated in 96-well plates for 24 hours in DMEM supplemented with FBS and antibiotics. ARPE-19 cells were preincubated with either ciclopirox olamine (Sigma), compound 414 (Chemical Diversity, San Diego, CA), compound 434 (Chemical Diversity) or no compound for 24 hours and then exposed to varying concentrations of tert-butyl hydroperoxide (TBHP; Sigma-Aldrich, St. Louis, MO) the next day for 24 hours. Cell viability was measured the following day by RealTime-Glo™ MT cell viability assay (Promega, Madison, WI) using a BioTek FLx800™ fluorescence reader (BioTek, Winooski, VT).
Initial screening of a library with 640 FDA-approved drugs (Enzo Life Sciences FDA-approved drug library) with known bioactivity, safety & bioavailability, and natural products was performed using TBHP, a chemical oxidizing agent, as a model of oxidative stress-induced cell death.
Initial screening of a library with 65,000 synthetic compounds (Chemical Diversity library) using tert-butyl hydroperoxide (TBHP), a chemical oxidizing agent, as a model of oxidative stress-induced cell death.

[2] = system: Human ARPE-19 cells; assay: Mitochondrial respiration (Seahorse XF, oxygen consumption rate) after TBHP in ARPE-19
Method: (§1) Analysis of mitochondrial function was performed on live cells using XFe96 Extracellular Flux Analyzer (Seahorse Bioscience) using the cell mito stress test (CMST). Human ARPE-19 cells or iPSC-derived RPE were seeded in a 96 well plate and grown for 24 h. Cells were preincubated with compound or no compound for 24 hours and then exposed to varying concentrations of TBHP the next day for 24 hours. Cells were the washed with CMST assay medium (XF base medium DMEM supplemented with 2 mM glutamine, 5.5 mM glucose, and 1 mM sodium pyruvate, pH 7.4), and then incubated in CMST medium for 1 h at 37° C. in a non-CO2 incubator. The CMST assay protocol was performed by manufacturer guidance (Seahorse Bioscience). Oxygen consumption rate (OCR) was detected under basal conditions followed by the sequential addition of oligomycin, carbonyl cyanide 4-(trifluoromethoxy) phenylhydrazone (FCCP), as well as rotenone and antimycin A. The measured parameters include: basal respiration, adenosine triphosphate (ATP) production, maximal respiration, spare respiratory capacity.
Human ARPE-19 cells were preincubated with 3 μM ciclopirox olamine for 18 hours, then treated with 500 μM TBHP for 24 hours and oxygen consumption rate determined using the Seahorse XF analyzer.
The effects of compound treatment on mitochondrial function in human RPE cells were investigated. Human ARPE-19 cells were preincubated with 0.6 μM of compound 414 or compound 434 for 18 hours, then treated with 300 μM TBHP for 24 hours and oxygen consumption rate determined using the Seahorse XF analyzer.

[3] = system: Human ARPE-19 cells; assay: UV-B radiation damage in ARPE-19; conditions: then 1200 mJ/cm^2 UV-B
Method: Human ARPE-19 cells were plated in 96-well plates for 24 hours in DMEM supplemented with FBS and antibiotics. ARPE-19 cells were preincubated with compound or no compound for 24 hours and then exposed to 1200 mJ/cm^2 ultraviolet B (UV-B) radiation in a chamber. Cell viability was measured the following day by […] MT cell viability assay (Promega) using a BioTek FLx800™ fluorescence reader (BioTek, Winooski, VT).
Human ARPE-19 cells were then preincubated with 3 μM of ciclopirox olamine for 24 hours and then exposed to 1200 mJ/cm^2 of UV-B radiation. Ciclopirox olamine protects human ARPE-19 cells exposed to 1200 mJ/cm^2 UV-B radiation (FIG. 6).
To confirm the results using TBHP, another model of oxidative stress in which human RPE cells are exposed to UV-B light was employed. […] Human ARPE-19 cells were then preincubated with 0.6 μM of compound 414 and compound 434 for 24 hours and then exposed to 1200 mJ/cm^2 of UV-B radiation. Compound 414 and compound 434 protective human ARPE-19 cells exposed to 1200 mJ/cm^2 UV-B radiation (FIG. 11).

[4] = system: Human iPSC-derived RPE cells; assay: Mitochondrial respiration (Seahorse XF) after TBHP in iPSC-derived RPE
Method: Human iPSC-derived RPE cells were preincubated with 3 μM ciclopirox olamine for 18 hours, then treated with 500 μM tert-butyl hydroperoxide (TBHP) for 24 hours. Oxygen consumption rate was determined using the Seahorse XF analyzer to measure mitochondrial function. FIG. 7A depicts basal respiration. FIG. 7B depicts maximal oxygen consumption rate (OCR). FIG. 7C depicts spare respiratory capacity. FIG. 7D depicts ATP production.
Human iPSCs were derived from fibroblasts of a donor with no history of retinal disease. A skin specimen was processed as previously described. Briefly, the skin biopsy was transplanted onto a culture plate and fibroblasts were grown to confluence and then treated with four Yamanaka factors, Oct3/4, Sox-2, Klf4, and c-Myc using the CytoTune™-iPS 2.0 Sendai Reprogramming Kit according to the manufacturer's instructions (Invitrogen-Gibco, Life Technologies=) (31-36). Newly generated iPSC colonies were purified and expanded using MTeSR1™ media (Stem Cell Technologies, Vancouver, Canada).
Human iPSCs were differentiated to iPSC-derived RPE cells as previously described. Human iPSC colonies were lifted and grown as embryoid bodies (EBs) for 4 days in EB formation medium (STEMCELL Technologies). After 5 days, EB medium was replaced with neural induction medium (NIM) containing DMEM/F12 (1:1), 1% N-2 supplement (MEM non-essential amino acids and 2 μg/mL heparin) and suspended EB aggregates were plated onto laminin-coated culture plates and allowed to reattach. After 16 days, neural induction medium was replaced with retinal differentiation medium (RDM) containing DMEM/F12 (3:1), 2% B-27 supplement (Invitrogen-Gibco, Life Technologies), MEM non-essential amino acids and penicillin/streptomycin. The adherent culture was maintained in RDM until the appearance of pigmented iPSC-derived RPE cells. Patches of pigmented iPSC-derived RPE cells were then micro-dissected and cultured on Transwell® plates with RDM+10% fetal bovine serum (FBS) for 2 days and then switched to RDM with 2% FBS until the cells were confluent. Human iPSC-derived RPE cells were then maintained in RDM and allowed to form monolayers within 90 days.
as §1
Human iPSC-derived RPE cells were preincubated with 0.6 μM of compound 414 or compound 434 for 18 hours, then treated with 300 μM TBHP for 24 hours and oxygen consumption rate determined using the Seahorse XF analyzer.

[5] = 3 μM 18 h, then 500 μM TBHP 24 h, vs TBHP-treated group
[6] = 3 μM 18 h, then 500 μM TBHP 24 h
[7] = 0.6 μM 18 h, then 300 μM TBHP 24 h

Structure (SMILES)	protection from oxidative stress-induced cell death ([1]; ARPE-19)	protection from TBHP-induced cell death in screen of 65,000 compound Chemical Diversity library ([1]; ARPE-19)	ATP production [2, 7]	basal respiration [2, 7]	maximal OCR [2, 7]	reserve capacity [2, 7]	protection from UV-B radiation damage ([3]; 0.6 μM 24 h)	ATP production [4, 7]	basal respiration [4, 7]	other results
Cc1cc(C2CCCCC2)n(O)c(=O)c1 [ciclopirox olamine, 6-cyclohexyl-1-hydroxy-4-methyl-2(1H)-pyridone, ethanolamine salt, reference compound]	–	–	–	–	–	–	–	–	–	cell viability after challenge with TBHP (luminescence); protection from oxidative stress-induced cell death ([1]; ARPE-19, ciclopirox olamine preincubation 24 h, then TBHP 24 h (FIG. 1: 0.9 μM, 300 μM TBHP)): protects; also recorded: significantly enhances cell viability; protection from TBHP-induced cell death in screen of 640 FDA-approved drug library ([1]; ARPE-19, initial library screening): significantly protects; cell viability, treatment alone compared to no treatment ([1]; human RPE cells, ciclopirox olamine alone, no TBHP): significantly enhances cell viability; ATP turnover [2, 5]: significantly increased; basal respiration [2, 5]: significantly increased; maximal OCR [2, 5]: significantly increased; reserve capacity [2, 5]: significantly increased; protection from UV-B radiation damage ([3]; 3 μM 24 h): protects; ATP production [4, 6]: significantly increased; basal respiration [4, 6]: significantly increased; maximal OCR [4, 6]: significantly increased; reserve capacity [4, 6]: significantly increased
CCc1cccc(C)c1Nc1c(-c2cc(Br)ccc2O)nc2ncccn12 [compound 414]	Protective effects	significantly protects	significantly increased	significantly increased	significantly increased	significantly increased	protective	significantly increased	significantly increased	cell viability after challenge with TBHP (luminescence); protection from oxidative stress-induced cell death ([1]; ARPE-19, compound preincubation, TBHP 24 h (FIG. 8: 0.6 μM, 300 μM TBHP)): protects; also recorded: significantly enhances cell viability; maximal OCR [4, 7]: significantly increased; reserve capacity [4, 7]: significantly increased
CCc1cccc(C)c1Nc1c(-c2cc(Br)ccc2O)nc2nc(C)cc(C)n12 [compound 434]	Protective effects	significantly protects	significantly increased	significantly increased	significantly increased	significantly increased	protective	significantly increased	significantly increased	–
